Reference: patent publication US10167262B2, “Herbicidal substituted 3-arylpyrazoles” (FMC CORPORATION, priority 2014, dated 2019)
Like-named read-outs stand apart in the source and are kept apart here.

Experiments:
Format in all cases: in vivo
[1] = system: winter wheat (Triticum aestivum); test: Test C pre-/postemergence greenhouse test, plant response rating 0-100; conditions: Postemergence
Method in brief: (§1)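 Visual rating vs controls after 13–15 d greenhouse; 0 = no effect, 100 = complete control. Pre: seeds in loam/sand, treated at planting. Post: seedlings 2–18 cm (1–4 leaf) in peat-based mix. Compounds in surfactant-containing non-phytotoxic solvent.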

[2] = system: giant foxtail (Setaria faberii); test: as above; conditions: Postemergence
Method in brief: as §1

[3] = system: johnsongrass (Sorghum halepense); test: as above; conditions: Postemergence
Method in brief: as §1

[4] = system: wheat (Triticum aestivum); test: Test A pre-/postemergence greenhouse herbicide test, visual injury rating 0-100; conditions: 1000 g ai/ha; for plant injury at 1000 g/ha: Triticum aestivum, 240 h, read-out: Plant response rating (0 to 100 scale), Wheat
Method in brief: (§2)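 Visual injury versus untreated controls, scored about 10 days after treatment on a 0 to 100 scale (0 = no effect, 100 = complete control). Applications were preemergence directed soil spray plus postemergence spray at one- to two-leaf stage, 2 to 10 cm plants.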

[5] = system: pigweed (Amaranthus retroflexus); test: as above; conditions: 1000 g ai/ha; for pest or weed control at 1000 g/ha: Amaranthus retroflexus, 240 h, read-out: Plant response rating (0 to 100 scale), Pigweed
Method in brief: as §2

[6] = system: velvetleaf (Abutilon theophrasti); test: as above; conditions: 1000 g ai/ha; for pest or weed control at 1000 g/ha: Abutilon theophrasti, 240 h, read-out: Plant response rating (0 to 100 scale), Velvetleaf
Method in brief: as §2

corn (Zea mays) = test: as above; conditions: 1000 g ai/ha; for plant injury at 1000 g/ha: Zea mays, 240 h, read-out: Plant response rating (0 to 100 scale), Corn
Method in brief: as §2

[7] = system: barnyardgrass (Echinochloa crus-galli); test: as above; conditions: 1000 g ai/ha; for pest or weed control at 1000 g/ha: Echinochloa crus-galli, 240 h, read-out: Plant response rating (0 to 100 scale), Barnyardgrass
Method in brief: as §2

[8] = system: large (Lg) crabgrass (Digitaria sanguinalis); test: as above; conditions: 1000 g ai/ha; for pest or weed control at 1000 g/ha: Digitaria sanguinalis, 240 h, read-out: Plant response rating (0 to 100 scale), Crabgrass, Large
Method in brief: as §2

[9] = system: giant foxtail (Setaria faberii); test: as above; conditions: 1000 g ai/ha; for pest or weed control at 1000 g/ha: Setaria faberi, 240 h, read-out: Plant response rating (0 to 100 scale), Foxtail, Giant
Method in brief: as §2

[10] = system: morningglory (Ipomoea spp.); test: as above; conditions: 1000 g ai/ha; for pest or weed control at 1000 g/ha: Ipomoea, 240 h, read-out: Plant response rating (0 to 100 scale), Morningglory
Method in brief: as §2

wild oat (Avena fatua) = test: Test C postemergence greenhouse test, plant response rating 0-100
Method in brief: (§3)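 First, plants were raised in a sphagnum peat, vermiculite and nutrient medium to 1–4 leaves. Next, formulated test compounds were applied over the foliage. Finally, after 13–15 greenhouse days, injury was compared with controls and scored 0–100.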

kochia (Kochia scoparia) = test: as above
Method in brief: as §3

[11] = system: chickweed (common chickweed, Stellaria media); test: as above
Method in brief: as §3

## CCn1cc(C(=O)c2ccccc2)c(-c2cc(Cl)cc(Cl)c2)n1 [Compound 31, [3-(3,5-dichlorophenyl)-1-ethyl-1H-pyrazol-4-yl]phenylmethanone]
[1]; Triticum aestivum, post-emergence, 16 g ai/ha
  plant injury at 16 g/ha: 0%
[1]; Triticum aestivum, post-emergence, 62 g ai/ha, read-out: Plant response rating (0 to 100), Wheat
  plant injury at 62 g/ha: 0%
[1]; Triticum aestivum, post-emergence, 125 g ai/ha, read-out: Plant response rating (0 to 100), Wheat
  plant injury at 125 g/ha: 0%
[2]; Setaria faberi, post-emergence, 16 g ai/ha
  pest or weed control at 16 g/ha: 5%
[2]; Setaria faberi, post-emergence, 31 g ai/ha, read-out: Plant response rating (0 to 100), Foxtail, Giant
  pest or weed control at 31 g/ha: 5%
[2]; Setaria faberi, post-emergence, 62 g ai/ha, read-out: Plant response rating (0 to 100), Foxtail, Giant
  pest or weed control at 62 g/ha: 5%
[2]; Setaria faberi, post-emergence, 125 g ai/ha, read-out: Plant response rating (0 to 100), Foxtail, Giant
  pest or weed control at 125 g/ha: 5%
[3]; Sorghum halepense, post-emergence, 16 g ai/ha
  pest or weed control at 16 g/ha: 0%
[3]; Sorghum halepense, post-emergence, 62 g ai/ha, read-out: Plant response rating (0 to 100), Johnsongrass
  pest or weed control at 62 g/ha: 5%
[3]; Sorghum halepense, post-emergence, 125 g ai/ha, read-out: Plant response rating (0 to 100), Johnsongrass
  pest or weed control at 125 g/ha: 10%
[4]; post-emergence, Postemergence
  plant injury at 1000 g/ha: 0%
[4]; pre-emergence, Preemergence
  plant injury at 1000 g/ha: 0%
[5]; post-emergence, Postemergence
  pest or weed control at 1000 g/ha: 100%
[5]; pre-emergence, Preemergence
  pest or weed control at 1000 g/ha: 100%
[6]; post-emergence, Postemergence
  pest or weed control at 1000 g/ha: 90%
[6]; pre-emergence, Preemergence
  pest or weed control at 1000 g/ha: 70%
Corn (Zea mays); post-emergence, Postemergence
  plant injury at 1000 g/ha: 10%
Corn (Zea mays); pre-emergence, Preemergence
  plant injury at 1000 g/ha: 0%
[7]; post-emergence, Postemergence
  pest or weed control at 1000 g/ha: 20%
[7]; pre-emergence, Preemergence
  pest or weed control at 1000 g/ha: 0%
[8]; post-emergence, Postemergence
  pest or weed control at 1000 g/ha: 0%
[8]; pre-emergence, Preemergence
  pest or weed control at 1000 g/ha: 0%
[9]; post-emergence, Postemergence
  pest or weed control at 1000 g/ha: 0%
[9]; pre-emergence, Preemergence
  pest or weed control at 1000 g/ha: 0%
[10]; post-emergence, Postemergence
  pest or weed control at 1000 g/ha: 0%
[10]; pre-emergence, Preemergence
  pest or weed control at 1000 g/ha: 0%
Wild oat (Avena fatua); Avena fatua, post-emergence, 16 g ai/ha
  pest or weed control at 16 g/ha: 0%
Wild oat (Avena fatua); Avena fatua, post-emergence, 62 g ai/ha
  pest or weed control at 62 g/ha: 0%
Wild oat (Avena fatua); Avena fatua, post-emergence, 125 g ai/ha
  pest or weed control at 125 g/ha: 0%
Kochia (Kochia scoparia); Bassia scoparia, post-emergence, 16 g ai/ha
  pest or weed control at 16 g/ha: 5%
Kochia (Kochia scoparia); Bassia scoparia, post-emergence, 62 g ai/ha
  pest or weed control at 62 g/ha: 40%
Kochia (Kochia scoparia); Bassia scoparia, post-emergence, 125 g ai/ha
  pest or weed control at 125 g/ha: 40%
[11]; Stellaria media, post-emergence, 16 g ai/ha
  pest or weed control at 16 g/ha: 10%
[11]; Stellaria media, post-emergence, 31 g ai/ha
  pest or weed control at 31 g/ha: 70%
[11]; Stellaria media, post-emergence, 62 g ai/ha
  pest or weed control at 62 g/ha: 75%
[11]; Stellaria media, post-emergence, 125 g ai/ha
  pest or weed control at 125 g/ha: 80%

## CCn1cc(C(=O)c2ccccc2)c(-c2cc(Br)cc(Br)c2)n1 [Compound 38]
[1]; 62 g ai/ha
  Plant response rating (0 to 100), Wheat: 0
[1]; 125 g ai/ha
  Plant response rating (0 to 100), Wheat: 0
[1]; 250 g ai/ha, scale 0 to 100
  Plant response rating, Wheat: 5
[2]; 31 g ai/ha
  Plant response rating (0 to 100), Foxtail, Giant: 0
[2]; 62 g ai/ha
  Plant response rating (0 to 100), Foxtail, Giant: 0
[2]; 125 g ai/ha
  Plant response rating (0 to 100), Foxtail, Giant: 0
[2]; 250 g ai/ha, scale 0 to 100
  Plant response rating, Foxtail, Giant: 0
[3]; 62 g ai/ha
  Plant response rating (0 to 100), Johnsongrass: 0
[3]; 125 g ai/ha
  Plant response rating (0 to 100), Johnsongrass: 0
[3]; 250 g ai/ha, scale 0 to 100
  Plant response rating, Johnsongrass: 0
[4]; Postemergence
  Plant response rating (0 to 100 scale), Wheat: 0
[4]; Preemergence
  Plant response rating (0 to 100 scale), Wheat: 0
[5]; Postemergence
  Plant response rating (0 to 100 scale), Pigweed: 100
[5]; Preemergence
  Plant response rating (0 to 100 scale), Pigweed: 90
[6]; Postemergence
  Plant response rating (0 to 100 scale), Velvetleaf: 90
[6]; Preemergence
  Plant response rating (0 to 100 scale), Velvetleaf: 80
Corn (Zea mays); Postemergence
  Plant response rating (0 to 100 scale), Corn: 0
Corn (Zea mays); Preemergence
  Plant response rating (0 to 100 scale), Corn: 0
[7]; Postemergence
  Plant response rating (0 to 100 scale), Barnyardgrass: 0
[7]; Preemergence
  Plant response rating (0 to 100 scale), Barnyardgrass: 0
[8]; Postemergence
  Plant response rating (0 to 100 scale), Crabgrass, Large: 0
[8]; Preemergence
  Plant response rating (0 to 100 scale), Crabgrass, Large: 0
[9]; Postemergence
  Plant response rating (0 to 100 scale), Foxtail, Giant: 0
[9]; Preemergence
  Plant response rating (0 to 100 scale), Foxtail, Giant: 0
[10]; Preemergence
  Plant response rating (0 to 100 scale), Morningglory: 0
Wild oat (Avena fatua); 62 g ai/ha
  Plant response rating (0 to 100), Oat, Wild: 0
Wild oat (Avena fatua); 125 g ai/ha
  Plant response rating (0 to 100), Oat, Wild: 0
Wild oat (Avena fatua); 250 g ai/ha, scale 0 to 100
  Plant response rating, Oat, Wild: 0
Kochia (Kochia scoparia); 62 g ai/ha
  Plant response rating (0 to 100), Kochia: 35
Kochia (Kochia scoparia); 250 g ai/ha, scale 0 to 100
  Plant response rating, Kochia: 50
[11]; 31 g ai/ha
  Plant response rating (0 to 100), Chickweed: 20
[11]; 62 g ai/ha
  Plant response rating (0 to 100), Chickweed: 50
[11]; 125 g ai/ha
  Plant response rating (0 to 100), Chickweed: 60
[11]; 250 g ai/ha, scale 0 to 100
  Plant response rating, Chickweed: 100
